Assay results as given in patent publication US20260285875A1, “INHIBITORS OF PARG” (858 Therapeutics, Inc., priority 2023, published 2026).

molecular target: T1, cellular PARG (Homo sapiens, UniProt Q86W56); experiment: Nuclear PAR accumulation assay (immunofluorescence high-content imaging, MMS-treated HeLa cells); format: cell-based; details: 1 hour compound then MMS 50 μg/mL for an additional hour
T1 construct: endogenous in cells; host or cells: HeLa
Summary of the method: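 HeLa cells pretreated with compound for 1 h at 37° C, then given 50 μg/mL MMS for another hour. After methanol fixation, PAR was immunostained with DAPI nuclear counterstain; per-nucleus intensity and percent PAR-positive cells were imaged at 20× (≥1,000 cells/well). IC50 from four-parameter logistic fit.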

T1 sequence (Q86W56 whole entry): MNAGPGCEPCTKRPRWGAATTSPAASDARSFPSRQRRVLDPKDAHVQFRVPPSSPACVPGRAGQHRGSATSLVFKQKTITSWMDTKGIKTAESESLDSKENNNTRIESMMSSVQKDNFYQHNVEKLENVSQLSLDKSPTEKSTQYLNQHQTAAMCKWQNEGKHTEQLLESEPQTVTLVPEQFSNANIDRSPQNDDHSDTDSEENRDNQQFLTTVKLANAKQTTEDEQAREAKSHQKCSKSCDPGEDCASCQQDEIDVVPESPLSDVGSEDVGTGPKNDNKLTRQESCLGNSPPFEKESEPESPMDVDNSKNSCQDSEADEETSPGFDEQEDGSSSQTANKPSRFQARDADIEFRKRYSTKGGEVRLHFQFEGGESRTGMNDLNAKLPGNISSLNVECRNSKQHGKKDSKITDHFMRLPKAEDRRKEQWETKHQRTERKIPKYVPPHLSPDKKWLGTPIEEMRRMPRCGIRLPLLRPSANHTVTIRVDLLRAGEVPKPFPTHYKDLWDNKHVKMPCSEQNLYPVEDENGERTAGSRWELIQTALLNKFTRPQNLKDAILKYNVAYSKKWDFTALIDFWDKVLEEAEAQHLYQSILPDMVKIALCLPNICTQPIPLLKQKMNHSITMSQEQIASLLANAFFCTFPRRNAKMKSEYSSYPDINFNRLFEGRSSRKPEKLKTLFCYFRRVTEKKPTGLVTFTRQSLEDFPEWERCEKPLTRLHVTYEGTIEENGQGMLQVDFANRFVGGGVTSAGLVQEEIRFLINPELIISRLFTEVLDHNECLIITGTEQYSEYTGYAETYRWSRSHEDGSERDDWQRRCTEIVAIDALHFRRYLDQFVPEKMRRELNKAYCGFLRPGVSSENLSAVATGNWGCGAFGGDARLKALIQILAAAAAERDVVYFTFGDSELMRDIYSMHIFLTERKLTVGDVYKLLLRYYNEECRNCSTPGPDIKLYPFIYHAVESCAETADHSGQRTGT

SMILES	IC50
[2H]C([2H])(c1cnn(C)c1)N1C(=O)c2cc(S(=O)(=O)NC3(C)CC3)c(OC)cc2N2C1=N[C@H]1CCC[C@H]12 [Example 213, (7aS,10aR)-2-methoxy-6-((1-methyl-1H-pyrazol-4-yl)methyl-d2)-N-(1-methylcyclopropyl)-5-oxo-6,7a,8,9,10,1Oa-hexahydro-5H-cyclopenta[4,5]imidazo[1,2-a]quinazoline-3-sulfonamide]	100 to 1000 nM
CCC[C@@H]1CN=C2N(Cc3cnn(C)c3)C(=O)c3cc(S(=O)(=O)NC4(C)CC4)ccc3N21 [Example 122, (R)-4-((1-methyl-1H-pyrazol-4-yl)methyl)-N-(1-methylcyclopropyl)-5-oxo-1-propyl-1,2,4,5-tetrahydroimidazo[1,2-a]quinazoline-7-sulfonamide]	< 100 nM
CN1CCC[C@H]1[C@@H]1CN=C2N(Cc3cnn(C)c3)C(=O)c3cc(S(=O)(=O)NC4(C)CC4)ccc3N21 [Example 276, (S)-4-((1-methyl-1H-pyrazol-4-yl)methyl)-N-(1-methylcyclopropyl)-1-((S)-1-methylpyrrolidin-2-yl)-5-oxo-1,2,4,5-tetrahydroimidazo[1,2-a]quinazoline-7-sulfonamide]	< 100 nM
Cn1cc(CN2C(=O)c3cc(S(=O)(=O)NC4(C)CC4)ccc3N3C2=N[C@H]2CCNC[C@H]23)cn1 [Example 160, (7aS,11aR)-6-((1-methyl-1H-pyrazol-4-yl)methyl)-N-(1-methylcyclopropyl)-5-oxo-5,6,7a,8,9,10,11,11a-octahydropyrido[4′,3′:4,5]imidazo[1,2-a]quinazoline-3-sulfonamide]	100 to 1000 nM
Cn1cc(CN2C(=O)c3cc(S(=O)(=O)NC4(C)CC4)ccc3N3C2=NCC3COc2ccon2)cn1 (stereo not shown) [Example 150, 1-((isoxazol-3-yloxy)methyl)-4-((1-methyl-1H-pyrazol-4-yl)methyl)-N-(1-methylcyclopropyl)-5-oxo-1,2,4,5-tetrahydroimidazo[1,2-a]quinazoline-7-sulfonamide]	< 100 nM
[2H]C([2H])(c1cnn(C)c1)N1C(=O)c2cc(S(=O)(=O)NC3(C)CC3)ccc2N2C1=NC[C@H]2C#Cc1cn(C)nc1F [Example 101, (R)-1-((3-fluoro-1-methyl-1H-pyrazol-4-yl)ethynyl)-4-((1-methyl-1H-pyrazol-4-yl)methyl-d2)-N-(1-methylcyclopropyl)-5-oxo-1,2,4,5-tetrahydroimidazo[1,2-a]quinazoline-7-sulfonamide]	< 100 nM
Cn1cc(CN2C(=O)c3cc(S(=O)(=O)NC4(C)CC4)cc(C4=CCOCC4)c3N3CC(C)(C)N=C23)cn1 [Example 12, 9-(3,6-dihydro-2H-pyran-4-yl)-2,2-dimethyl-4-((1-methyl-1H-pyrazol-4-yl)methyl)-N-(1-methylcyclopropyl)-5-oxo-1,2,4,5-tetrahydroimidazo[1,2-a]quinazoline-7-sulfonamide]	< 100 nM
[2H]C([2H])(c1cnn(C)c1)N1C(=O)c2cc(S(=O)(=O)NC3(C)CC3)ccc2N2C1=NC[C@H]2C#Cc1cncc(N(C)C)c1 [Example 253, (R)-1-((5-(dimethylamino)pyridin-3-yl)ethynyl)-4-((1-methyl-1H-pyrazol-4-yl)methyl-d2)-N-(1-methylcyclopropyl)-5-oxo-1,2,4,5-tetrahydroimidazo[1,2-a]quinazoline-7-sulfonamide]	< 100 nM
C[C@@H]1C[C@H](C)N2C(=N1)N(Cc1cnn(C)c1)C(=O)c1cc(S(=O)(=O)NC3(C)CC3)ccc12 [Example 235, (1S,3R)-1,3-dimethyl-5-((1-methyl-1H-pyrazol-4-yl)methyl)-N-(1-methylcyclopropyl)-6-oxo-2,3,5,6-tetrahydro-1H-pyrimido[1,2-a]quinazoline-8-sulfonamide]	100 to 1000 nM
Cn1cc(CN2C(=O)c3cc(S(=O)(=O)NC4(C)CC4)ccc3N3C2=NC[C@H]3C#Cc2cnc3cccnn23)cn1 [Example 221, (R)-1-(imidazo[1,2-b]pyridazin-3-ylethynyl)-4-((1-methyl-1H-pyrazol-4-yl)methyl)-N-(1-methylcyclopropyl)-5-oxo-1,2,4,5-tetrahydroimidazo[1,2-a]quinazoline-7-sulfonamide]	< 100 nM
C#C[C@@H]1CN=C2N(Cc3cnn(C)c3)C(=O)c3cc(S(=O)(=O)NC4(C)CC4)cc(C4=CCN(C)CC4)c3N21 [Example 76, (R)-1-ethynyl-9-(1-methyl-1,2,3,6-tetrahydropyridin-4-yl)-4-((1-methyl-1H-pyrazol-4-yl)methyl)-N-(1-methylcyclopropyl)-5-oxo-1,2,4,5-tetrahydroimidazo[1,2-a]quinazoline-7-sulfonamide]	< 100 nM
Cn1cc(C#C[C@@H]2CN=C3N(Cc4cnn(C)c4)C(=O)c4cc(S(=O)(=O)NC5(C)CC5)ccc4N32)cn1 [Example 35, (R)-1-((1-methyl-1H-pyrazol-4-yl)ethynyl)-4-((1-methyl-1H-pyrazol-4-yl)methyl)-N-(1-methylcyclopropyl)-5-oxo-1,2,4,5-tetrahydroimidazo[1,2-a]quinazoline-7-sulfonamide]	< 100 nM
[2H]C([2H])(c1cnn(C)c1)N1C(=O)c2cc(S(=O)(=O)NC3(C)CC3)ccc2N2C1=NC[C@H]2C#Cc1nn(C)nc1C [Example 266, (R)-1-((2,5-dimethyl-2H-1,2,3-triazol-4-yl)ethynyl)-4-((1-methyl-1H-pyrazol-4-yl)methyl-d2)-N-(1-methylcyclopropyl)-5-oxo-1,2,4,5-tetrahydroimidazo[1,2-a]quinazoline-7-sulfonamide]	< 100 nM
Cn1ncc(C#C[C@@H]2CN=C3N(Cc4cnn5c4CNCC5)C(=O)c4cc(S(=O)(=O)NC5(C)CC5)ccc4N32)n1 [Example 288, (R)-1-((2-methyl-2H-1,2,3-triazol-4-yl)ethynyl)-N-(1-methylcyclopropyl)-5-oxo-4-((4,5,6,7-tetrahydropyrazolo[1,5-a]pyrazin-3-yl)methyl)-1,2,4,5-tetrahydroimidazo[1,2-a]quinazoline-7-sulfonamide]	< 100 nM
Cn1cc(CN2C(=O)c3cc(S(=O)(=O)NC4(C)CC4)ccc3N3C2=NC[C@H]3c2ccccc2)cn1 [Example 144, (R)-4-((1-methyl-1H-pyrazol-4-yl)methyl)-N-(1-methylcyclopropyl)-5-oxo-1-phenyl-1,2,4,5-tetrahydroimidazo[1,2-a]quinazoline-7-sulfonamide]	< 100 nM
[2H]C([2H])(c1cnn(C)c1)N1C(=O)c2cc(S(=O)(=O)NC3(C)CC3)ccc2N2C1=NC[C@H]2C#CCC(C)C [Example 96, (R)-4-((1-methyl-1H-pyrazol-4-yl)methyl-d2)-N-(1-methylcyclopropyl)-1-(4-methylpent-1-yn-1-yl)-5-oxo-1,2,4,5-tetrahydroimidazo[1,2-a]quinazoline-7-sulfonamide]	< 100 nM

More lines, now with the values ahead:

IC50	SMILES
< 100 nM	C[C@@H]1CN=C2N(Cc3cnn(C)c3)C(=O)c3cc(S(=O)(=O)NC4(C)CC4)cc(N4CCC4)c3N21 [Example 2, (R)-9-(azetidin-1-yl)-1-methyl-4-((1-methyl-1H-pyrazol-4-yl)methyl)-N-(1-methylcyclopropyl)-5-oxo-1,2,4,5-tetrahydroimidazo[1,2-a]quinazoline-7-sulfonamide]
< 100 nM	C[C@@H]1CN=C2N(C)C(=O)c3cc(S(=O)(=O)NC4(C)CC4)cc(N4CCC5(CC4)COC5)c3N21 [Example 123, (R)-1,4-dimethyl-N-(1-methylcyclopropyl)-5-oxo-9-(2-oxa-7-azaspiro[3.5]nonan-7-yl)-1,2,4,5-tetrahydroimidazo[1,2-a]quinazoline-7-sulfonamide]
1000 to 10000 nM	C[C@@H]1CN=C2N(Cc3cnn(C)c3)C(=O)c3cc(S(=O)(=O)NC4(C)CC4)cc(N4CCN[C@@H](C)C4)c3N21 [Example 82, (R)-1-methyl-4-((1-methyl-1H-pyrazol-4-yl)methyl)-N-(1-methylcyclopropyl)-9-((S)-3-methylpiperazin-1-yl)-5-oxo-1,2,4,5-tetrahydroimidazo[1,2-a]quinazoline-7-sulfonamide]
100 to 1000 nM	C[C@@H]1CN=C2N(Cc3cnn(C)c3)C(=O)c3cc(S(=O)(=O)NC4(C)CC4)cc(N4CCC(O)CC4)c3N21 [Example 27, (R)-9-(4-hydroxypiperidin-1-yl)-1-methyl-4-((1-methyl-1H-pyrazol-4-yl)methyl)-N-(1-methylcyclopropyl)-5-oxo-1,2,4,5-tetrahydroimidazo[1,2-a]quinazoline-7-sulfonamide]
< 100 nM	C[C@@H]1CN=C2N(Cc3cn(C)nc3C(F)F)C(=O)c3cc(S(=O)(=O)NC4(C)CC4)ccc3N21 [Example 24, (R)-4-((3-(difluoromethyl)-1-methyl-1H-pyrazol-4-yl)methyl)-1-methyl-N-(1-methylcyclopropyl)-5-oxo-1,2,4,5-tetrahydroimidazo[1,2-a]quinazoline-7-sulfonamide]
< 100 nM	C#C[C@@H]1CN=C2N(C)C(=O)c3cc(S(=O)(=O)NC4(C)CC4)cc(Cl)c3N21 [Example 51, (R)-9-chloro-1-ethynyl-4-methyl-N-(1-methylcyclopropyl)-5-oxo-1,2,4,5-tetrahydroimidazo[1,2-a]quinazoline-7-sulfonamide]
< 100 nM	CN1C(=O)c2cc(S(=O)(=O)NC3(C)CC3)ccc2N2C1=NC[C@H]2C#Cc1cn(C)nc1F [Example 120, (R)-1-((3-fluoro-1-methyl-1H-pyrazol-4-yl)ethynyl)-4-methyl-N-(1-methylcyclopropyl)-5-oxo-1,2,4,5-tetrahydroimidazo[1,2-a]quinazoline-7-sulfonamide]
1000 to 10000 nM	C[C@@H]1CN=C2N(Cc3cnn(C)c3)C(=O)c3cc(S(=O)(=O)NC4(C)CC4)cc(N4CC(C)(N)C4)c3N21 [Example 74, (R)-9-(3-amino-3-methylazetidin-1-yl)-1-methyl-4-((1-methyl-1H-pyrazol-4-yl)methyl)-N-(1-methylcyclopropyl)-5-oxo-1,2,4,5-tetrahydroimidazo[1,2-a]quinazoline-7-sulfonamide]
< 100 nM	CCN1C(=O)c2cc(S(=O)(=O)NC3(C)CC3)ccc2N2C1=NC[C@H]2C#CC1(N(C)C)CC1 [Example 186, (R)-1-((1-(dimethylamino)cyclopropyl)ethynyl)-4-ethyl-N-(1-methylcyclopropyl)-5-oxo-1,2,4,5-tetrahydroimidazo[1,2-a]quinazoline-7-sulfonamide]
